This passage reports inhibition in vivo results from patent US7807712B2, “Oxy substituted chalcones as antihyperglycemic and antidyslipidemic agents” (priority 2004, dated 2010).

The assay has as its system triton WR-1339 induced hyperlipidemic rats. Description: Triton model, antidyslipidemic activity. The format is in vivo, rat (Charles foster). Particulars: Rattus norvegicus, 100 mg/kg oral. How it is done:
Male Charles foster rats weighing 200-225 g were divided into control, hyperlipidemic and hyperlipidemic plus drug treated groups containing six animals in each group. Hyperlipidemia was induced by administration of triton WR-1339 (200 mg/kg i.p.). All animals were maintained on a special pellet diet and water ad libitum. Compounds and standard drug were macerated with 0.2% aqueous gum acacia suspension. The suspension was fed orally at the dose of 100 mg/kg simultaneously with triton in drug treated group. The animals of control group received the same amount of gum acacia by similar route of administration. At the end of the experiment, after 18 h, blood was withdrawn from retro orbital plexus and plasma was used for the assay of total cholesterol, phospholipid and triglycerides.
Cholesterol was estimated using the kit provided by Roche Diagnostics. Cholesterol esters are enzymatically hydrolyzed by cholesterol esterase (CE) to cholesterol and free fatty acids. Free cholesterol, including that originally present, is then oxidized by cholesterol oxidase (CO) to cholest-4-en-3-one and hydrogen peroxide. The hydrogen peroxide combines with hydroxy benzoic acid (HBA) and 4-aminoantipyrine (4AAA) in the presence of peroxidase (POD) to form a chromophore (quinoneimine dye), which may be quantitated at 500-505 nm. The intensity of red colour formed is directly proportional to the concentration of total cholesterol in the specimen and measured spectrophotometrically (Searcy, C. L. Diagnostic Biochemistry, 1969, McGraw Hill, New York; Ellefson, R. D.; Caraway, W. T. Fundamentals of clinical chemistry, 1976, Ed Tietz N W, 506-515.)
Triglycerides were estimated using the kit provided by Roche Diagnostics. Lipoprotein lipase hydrolyses triglycerides to yield glycerol and fatty acids. Glycerol kinase converts glycerol to glycerol-3-phosphate, which is oxidized by glycerol phosphate oxidase to dihydroxy acetone phosphate and hydrogen peroxide. In the presence of peroxidase, hydrogen peroxide oxidatively couples with 4-aminoantipyrine and 4-chloro phenol to produce red quinonimine dye. The intensity of red colour formed is directly proportional to the concentration of triglycerides in the specimen and is measured by photometrically (Wahlefeld, A. W.; Bergmeyer, H. U. Ed. Methods of enzymatic analysis, 2nd English edition, New York, N.Y., Academic press inc, 1831-1840.).
Serum (0.2 mL) and perchloric acid (1.0 mL) was digested at 180° C. for 1-1.5 h till the solution became colorless. The liberated inorganic phosphate (Pi) was measured by the method of Fiske and Subbarow (Fiske, C. H.; Subbarow, V. J. Biol. Chem. 1925, 66, 375.). 1 mL of 2.5% ammonium molybdate (prepared in 5 N sulphuric acid) and 0.5 mL reducing agent (4-amino naphthol sulphonic acid, 0.2%), sodium metabisulphite (2.4% w/v in distilled water) was added to the above tubes and mixed well. The reaction mixture was […] with 2.5 mL of triple distilled water and kept at 60° C. in water bath for 20 min. For standard, an appropriate amount of potassium dihydrogen phosphate dissolved in triple distilled water containing 2-10 μg phosphorus (Pi) was run simultaneously with the experiment tubes. The optical density of the blue colour was recorded at 620 nm against reagent blank. The values of Pi were converted into phospholipid by multiplying with 25 (a constant calibrated from Pi value of lecithin).

[1] abbreviates: plasma phospholipid after 18 h, read-out: % Fall in lipid levels (Triton model) PL.
Setting [2] is: plasma total cholesterol after 18 h, read-out: % Fall in lipid levels (Triton model) TC.
The mark [3] stands for this setting: plasma triglycerides after 18 h, read-out: % Fall in lipid levels (Triton model) TG.

Like-named read-outs stand apart in the source and are kept apart here.

As for `COc1ccc(/C=C/C(=O)c2ccc(OCC(O)CN3CCN(c4ccccc4)CC3)cc2)cc1OC` (stereo not drawn) [Compound 18, 3,4-Dimethoxy-4′-[2-hydroxy-3-(4-phenylpiperazin-1-yl)-propoxy]-chalcone], the inhibition in vivo at 100 mg/kg by setting is: under setting [1], 8%; under setting [2], 20%; under setting [3], 12%.
As for `O=C1NC(=O)/C(=C\c2ccc(OCCCCCOc3cccc(C(=O)/C=C/c4ccc5c(c4)OCO5)c3)cc2)S1` [Compound 46, 3,4-Methylenedioxy-3′-{5-[4-(thiazolidin-2,4-dione-5-ylidinemethyl)-phenoxy]-pentyloxy}-chalcone], the inhibition in vivo at 100 mg/kg under setting [1] came out at 20%, the inhibition in vivo at 100 mg/kg under setting [2] is 13% and the inhibition in vivo at 100 mg/kg under setting [3] is 20%.
For the compound `CC(C)(C)NCC(O)COc1ccc(C(=O)/C=C/c2ccc3c(c2)OCO3)cc1` (stereo not drawn) [Compound 34, 4′-[^3-tert-Butylamino-2-hydroxy-propoxy]-3,4-methylenedioxy-chalcone], the inhibition in vivo at 100 mg/kg is, setting by setting: under setting [1], 20%; under setting [2], 26%; under setting [3], 18%.
